From patent US20250049815A1, “25-HYDROXYCHOLESTEROL (25HC), CRYAB AGGREGATION INHIBITOR TO AMELIORIATE VASCULAR STIFFNESS” (Buck Institute for Research on Aging, priority 2021, published 2025)
“Also recorded” adds a separate entry of the source.

Experiments:
[1] = system: aged female C57BL/6J p16-3MR mice; assay: Pulsed wave velocity (PWV) of the aorta by doppler imaging in aged mice; format: in vivo, mouse; conditions: 27 months at baseline, 25HC 50 mpk IP or GCV, 1 and 2 months post treatment, vs untreated controls
Method: At baseline, animals were evaluated for blood flow in the aorta using doppler imaging. This determines a measure of vascular stiffness with vessels being more stiff having faster flow.

senescent cells = assay: Evaluation of senolytic effects in cell culture; format: cell-based
Description: Genetic knockdown of this gene kills senescent cells.
There are some commercially available analogs of 25HC such as oxysterols (Griffiths et al. (2019) Biochem Soc Trans., 47: 517-526).

[2] = system: mouse dermal fibroblasts (mDFs); assay: qPCR of senescence marker and CRYAB mRNA in Doxo treated mDFs; format: cell-based; conditions: 250 nM Doxo for 24 hours; day 1, 5, 14; normalized to β-actin, vs DMSO
Method: (§1) As shown, mDFs undergo senescence upon 250 nM of Doxo treatment for 24 hours (Day 0). Real-time quantitative PCR (qPCR) was performed on RNA samples isolated from DMSO treated NS (Non-Senescent) mDF cells or Doxo treated SEN (Senescent) mDF cells at day 1, 5, and 14 after Doxo treatment. The amount of mRNA was normalized to the level of β-actin (see, e.g., Demaria et al. (2017) Cancer Discovery, 2: 165-176; and references cited therein). Relative levels of p16INK4a mRNA for DMSO and Doxo treated mDFs was measured. The average value of DMSO is expressed as 1. (Mean +/−SE, n=4, **p<0.01, ****p<0.0001 by Dunnett's multiple comparisons test vs DMSO).
as §1, with “Real-time” for “As shown, mDFs undergo senescence upon 250 nM of Doxo treatment for 24 hours (Day 0). Real-time”, “NS” for “NS (Non-Senescent)”, “SEN” for “SEN (Senescent)”, “CRYAB” for “p16INK4a”, “*p<0.05, ***p<0.001” for “**p<0.01, ****p<0.0001”

[3] = system: mouse primary fibro adipogenic progenitors (FAPs); assay: qPCR of senescence marker and CRYAB mRNA in Doxo treated FAPs; format: cell-based; conditions: normalized to β-actin, vs DMSO
Method: As shown, FAPs undergo senescence upon 250 nM of Doxo treatment for 24 hours (Day 0). The mRNA was extracted from DMSO treated NS or Doxo treated SEN FAPs at indicated time points and quantified by qPCR. The amount of mRNA was normalized to the level of β-actin. The graphs show the relative levels of p16INK4a mRNA for DMSO and Doxo treated samples. The average value of DMSO is expressed as 1 (Mean +/−SE, n=3, *p<0.05 by Dunnett's multiple comparisons test vs DMSO).
The cells were treated with 250 nM doxorubicin and incubated for 24 hrs (Day 0). The mRNA was extracted from DMSO treated NS or Doxo treated SEN FAPs at the indicated time points and quantified by qPCR. The amount of mRNA was normalized to the level of β-actin mRNA. The average value of DMSO is expressed as 1 (Mean +/−SE, n=3, **p<0.01 and ***p<0.001 by Dunnett's multiple comparisons test vs DMSO).

[4] = system: senescent human fetal lung fibroblast (IMR-90); assay: Cell viability assay (Cell Counting Kit-8) on NS and SEN IMR-90 cells; format: cell-based; conditions: treatment started immediately after removing DMSO/250 nM Doxo, 72 hrs
Method: Panel A) Timeline for DMSO/250 nM Doxo treatment and early-time point timeline for 24(S)-HC and 27HC treatment on NS and SEN cells. 24(S)HC and 27HC treatment were started immediately after removing DMSO/Doxo. Panel B) and C) Cell viability assay were performed on NS and SEN cells treated with different concentrations of 24(S)HC and 27HC, respectively. 24(S)HC and 27HC treatment were done for 72 hrs. The cell viability was analyzed by Cell Counting Kit-8 according to the manufactures' protocol using Spectra Max 190 (Molecular Devices). The value was normalized to that of DMSO. (Mean +/−SE, n=3, *p<0.05, **p<0.01 and ***p<0.001 by student's t-test).

senescent FAPs = assay: Cell viability assay on NS and SEN FAPs treated with 25HC; format: cell-based, mouse; conditions: 25HC started immediately after removing DMSO/Doxo (early time point), total 5 days
Method: Panel A) Timeline for DMSO/Doxo treatment and early-time point timeline for 25HC treatment on NS and SEN cells. 25HC treatment was started immediately after removing DMSO/Doxo. Panel B) Cell viability assay was performed on NS and SEN cells treated with different concentrations of 25HC. 25HC treatment was done for total 5 days. The value was normalized to that of 0 uM. The average value of 0 M is expressed as 100% (Mean +/−SE, n=3, **p<0.01 and ***p<0.001 by student's t-test vs NS).

senescent mDFs = assay: Cell viability assay on NS and SEN mDFs treated with 25HC; format: cell-based, mouse; conditions: 72 hrs
Method: (§2) Panel A) Timeline for DMSO/Doxo treatment and early-time point timeline for 25HC treatment on NS and SEN cells. 25HC treatment was started immediately after removing DMSO/Doxo. Panel B) Cell viability assay was performed on NS and SEN cells treated with different concentrations of 25HC. 25HC treatment was done for 72 hrs. (Mean +/−SD, n=3, *p<0.05, **p<0.01 vs 0 uM by student's t-test).
as §2, with “late-time” for “early-time”, “7 days” for “immediately”, “n=6, **p<0.01, ***p<0.001, ****p<0.0001,” for “n=3, *p<0.05, **p<0.01”

CRYAB = conditions: Makley et al. (2015) Science, 350: 674-7; cited from earlier work

Row | SMILES | senolytic effect (senescent cells) | also measured
1 | Nc1nc(O)c2ncn(COC(CO)CO)c2n1 [GCV, ganciclovir, reference compound] | – | pulsed wave velocity (PWV) of the aorta [1]: reduces PWV
2 | CC(CCCN(C)C)C1CCC2C3CC=C4C[C@@H](O)CC[C@]4(C)C3CC[C@]12C (stereo partly drawn) [(3S,10R,13R)-17-(5-(dimethylamino)pentan-2-yl)-10,13-dimethyl-2,3,4,7,8,9,10,11,12,13,14,15,16,17-tetradecahydro-1H-cyclopenta[a]phenanthren-3-ol] | novel senolytics | –
3 | CC(C)CCC[C@@H](C)[C@H]1CC[C@H]2[C@@H]3[C@@H](O)C=C4C[C@@H](O)CC[C@]4(C)[C@H]3CC[C@]12C [7βHC, 7β-Hydroxycholesterol] | novel senolytics | –
4 | CC(=O)CCC[C@@H](C)[C@H]1CC[C@H]2[C@@H]3CC=C4C[C@@H](O)CC[C@]4(C)[C@H]3CC[C@]12C [27-Nor-25-ketocholesterol] | novel senolytics | –
5 | C[C@H](CCCC(C)(C)O)[C@H]1CC[C@H]2[C@@H]3[C@H](O)C=C4C[C@@H](O)CC[C@]4(C)[C@H]3CC[C@]12C [7α,25-Dihydroxycholesterol] | novel senolytics | –
6 | C[C@@H](CCCC(C)(O)c1ccccc1)C1CCC2C3CC=C4C[C@H](O)CC[C@@]4(C)C3CC[C@]21C (relative stereo) [rel-(3R,10S,13S)-17-[(2S)-6-hydroxy-6-phenylheptan-2-yl]-10,13-dimethyl-2,3,4,7,8,9,10,11,12,13,14,15,16,17-tetradecahydro-1H-cyclopenta[a]phenanthren-3-ol] | novel senolytics | –
7 | CC(C)CC[C@@H](O)[C@@H](C)[C@H]1CC[C@H]2[C@@H]3CC=C4C[C@@H](O)CC[C@]4(C)[C@H]3CC[C@]12C [22(R)HC, 22(R)-Hydroxycholesterol] | novel senolytics | –
8 | CC(C)CCC[C@@H](C)[C@H]1CC[C@H]2[C@@H]3[C@H](O)C=C4C[C@@H](O)CC[C@]4(C)[C@H]3CC[C@]12C [7αHC, 7α-Hydroxycholesterol] | novel senolytics | –
9 | COc1cccc2c1C(=O)c1c(O)c3c(c(O)c1C2=O)C[C@@](O)(C(=O)CO)C[C@@H]3O[C@H]1C[C@H](N)[C@H](O)[C@H](C)O1 [Doxo, doxorubicin] | – | relative level of CRYAB mRNA [2]: upregulated CRYAB; relative level of p16INK4a mRNA [2]: induces senescence marker, p16INK4a; senescence induction (relative level of p16INK4a mRNA) ([3]; 250 nM Doxo for 24 hours): induced senescence; expression of CRYAB mRNA ([3]; 250 nM doxorubicin for 24 hrs): significantly increased
10 | CC(C)[C@@H](O)CC[C@@H](C)[C@H]1CC[C@H]2[C@@H]3CC=C4C[C@@H](O)CC[C@]4(C)[C@H]3CC[C@]12C [24(S)HC, 24(S)-Hydroxycholesterol] | novel senolytics | cell viability of senescent vs non-senescent IMR-90 cells [4]: specifically kill senescent human fetal lung fibroblast; also recorded: specifically kill senescent IMR-90 cells
11 | C[C@H](CCC(=O)O)[C@H]1CCC2[C@@H]3CC=C4C[C@H](O)CC[C@]4(C)C3CC[C@@]21C (stereo partly drawn) [(3alpha,9xi,14xi)-3-hydroxychol-5-en-24-oic acid] | novel senolytics | –
12 | C[C@@H](CO)CCC[C@@H](C)[C@H]1CC[C@H]2[C@@H]3CC=C4C[C@@H](O)CC[C@]4(C)[C@H]3CC[C@]12C [27HC, 27-Hydroxycholesterol] | novel senolytics | cell viability of senescent vs non-senescent IMR-90 cells [4]: specifically kill senescent human fetal lung fibroblast; also recorded: specifically kill senescent IMR-90 cells
13 | C[C@H](CCCC(C)(C)O)[C@H]1CC[C@H]2[C@@H]3CC=C4C[C@@H](O)CC[C@]4(C)[C@H]3CC[C@]12C [25HC, 25-hydroxycholesterol] | novel senolytic agent | cell viability of senescent vs non-senescent FAPs (senescent FAPs): specifically kills senescent FAPs; cell viability of senescent vs non-senescent mDFs, late time point (senescent mDFs; 25HC started 7 days after removing DMSO/Doxo): specifically kills senescent mDFs; cell viability of senescent vs non-senescent mDFs, early time point (senescent mDFs; 25HC started immediately after removing DMSO/Doxo): specifically kills senescent mDFs; inhibition of CRYAB (CRYAB): effective inhibitor of CRYAB; pulsed wave velocity (PWV) of the aorta [1]: reduces PWV
14 | C=C1CC[C@@H](O)CC1=C/C=C1\CCC[C@]2(C)[C@@H]([C@H](C)CCCC(C)(C)O)CC[C@@H]12 [Calcifediol 25-Hydroxyvitamin D3, reference compound] | novel senolytics | –
